Literature values in patent US20080089861A1, “Combination therapy for treatment of demyelinating conditions” (priority 2006, published 2008).
Entries after “also recorded” stand apart in the source; their conditions may differ.

Settings: human

## CC12CC3CC(C)(C1)CC(N)(C3)C2 [Memantine, 1-amino-3,5-dimethyladamantane]
  Dose Dependent Tox: Dose escalation; also recorded: hallucination
